# Numbered stars: 1 amine (or outer) side, 2 acyl side, 3 side chain; on linkers, the order of the positions; unused ones are H or OH. Bridge positions count the residues as written; N and C are the ends. Square brackets hold non-standard residues; d marks the D form. Peptide text beside a SMILES is read from it. * marks the point of attachment. hhCys(CH2CO) = O=C([C@H](CCCSCC(=O)[*:3])N[*:1])[*:2]; X9 = CC(C)(S)CNCCN(CCCCC(=O)*)CC(C)(C)S; X3 = CC(C)(S)CNCCN(CCCCCN*)CC(C)(C)S; NMeF = CN[C@@H](Cc1ccccc1)C(=O)O; hCys = N[C@@H](CCS)C(=O)O
# Target: T1, somatostatin receptors (Rattus norvegicus, UniProt P30680)
# T1 construct: endogenous in cells; host or cells: AR42J rat pancreatic tumor cell line, membrane preparation
# Assay: Inhibition of binding of [125I-Tyr11]somatostatin-14 to AR42J rat pancreatic tumor cell membranes
# Conditions: uncomplexed peptides, displacement of [125I-Tyr11]somatostatin-14 (0.5 nM)
# Description: Inhibition of Binding of [^125 I-Tyr^11 ]somatostatin-14 to AR42J Rat Pancreatic Tumor Cell Membranes
# The rat pancreatic tumor cell line AR42J which expresses the somatostatin receptor was cultured in Dulbecco's minimal essential media (DMEM) supplemented with 10% fetal bovine serum (FBS) and 8 mM glutamine in a humidified 5% CO2 atmosphere at 37° C. in T-flasks. Harvested cells were homogenized in cold 50 mM Tris-HCl buffer (pH 7.4) and the homogenate then centrifuged at 39,000 g for 10 min at 4° C. Pellets were washed once with buffer and then resuspended in an ice-cold solution of 10 mM Tris-HCl (pH 7.4). Equal aliquots of this cell membrane preparation were incubated with [^125 I-Tyr^11 ]somatostatin-14 (at a final concentration of 0.5 nM and 750,000 cpm/mL, at a specific activity of 2000 Ci/mmol, Amersham, Arlington Heights, Ill.) and peptide or peptide-rheniumcomplex at a final concentration of from 10^-11 M to 10^-6 M in a solution of 50 mM HEPES (pH 7.4) containing 1% bovine serum albumin (BSA), 5 mM MgCl2, Trasylol (200,000 International Units), bacitracin (0.02 mg/mL) and phenylmethylsulfonylfluoride (0.02 mg/mL) for 25 min at 30° C. Using a filtration manifold, this mixture was filtered through a polyethyleneimine-washed GC/F filter (Whatman, Maidstone, England), and the residue remaining on the filter washed thrice with 5 mL cold HEPES buffer. The filter and a sample of the filter washings were then counted in a gamma counter. To assess non-specific binding, the assay was performed in the presence of unlabeled somatostatin-14 at 200 nM. Data analysis including Hill plots of the data provided inhibition constants (see Bylund & Yamamura, "Methods of receptor binding", in Methods in Neurotransmitter Receptor Analysis, Yamamura et al., eds., Raven Press: New York, 1990).
# T1 sequence (P30680 whole entry): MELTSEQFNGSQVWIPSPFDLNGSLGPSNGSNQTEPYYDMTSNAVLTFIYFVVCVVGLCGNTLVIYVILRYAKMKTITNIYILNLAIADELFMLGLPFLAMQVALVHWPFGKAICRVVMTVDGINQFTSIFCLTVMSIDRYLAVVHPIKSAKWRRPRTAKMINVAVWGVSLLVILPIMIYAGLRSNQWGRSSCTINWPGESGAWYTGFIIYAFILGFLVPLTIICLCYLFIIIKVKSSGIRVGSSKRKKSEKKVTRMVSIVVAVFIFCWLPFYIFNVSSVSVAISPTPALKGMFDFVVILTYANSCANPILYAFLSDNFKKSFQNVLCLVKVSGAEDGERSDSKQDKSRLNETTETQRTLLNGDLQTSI
row,SMILES,Ki [nM]
1,C[C@@H](O)[C@@H]1NC(=O)[C@H](CCCCN)NC(=O)[C@@H](Cc2c[nH]c3ccccc23)NC(=O)[C@H](Cc2ccccc2)NC(=O)[C@H](Cc2ccccc2)NC(=O)CSCC[C@@H](C(=O)O)NC(=O)[C@H](Cc2ccccc2)NC1=O [CH2 CO.FFWD KTF.Hcy] ({CH2CO}-FF[dW]KTF[hCys]-OH; thioether N-7),9.8
2,"CC(C)[C@@H]1NC(=O)[C@H](CCCCN)NC(=O)[C@@H](Cc2c[nH]c3ccccc23)NC(=O)[C@H](Cc2ccc(O)cc2)NC(=O)[C@H](CS)NC(=O)[C@H](CS)NC1=O [cyclo.CYWD KVC, cyclo Cys--Tyr--D--Trp--Lys--Val--Cys] (cyclo(CY[dW]KVC))",0.43
3,C[C@@H](O)[C@@H]1NC(=O)[C@H](CCCCN)NC(=O)[C@@H](Cc2c[nH]c3ccccc23)NC(=O)[C@H](Cc2ccccc2)NC(=O)[C@H](Cc2ccccc2)NC(=O)CSC[C@@H](C(=O)NCCCCCN(CCNCC(C)(C)S)CC(C)(C)S)NC(=O)[C@H](Cc2ccccc2)NC1=O [CH2 CO.FFWD KTFC.[BAM]] ({CH2CO}-FF[dW]KTFC-X3; thioether N-7),1.9
4,"CC(C)[C@@H]1NC(=O)[C@H](CCCCN)NC(=O)[C@@H](Cc2c[nH]c3ccccc23)NC(=O)[C@H](Cc2ccc(O)cc2)NC(=O)[C@H](Cc2ccccc2)N(C)C(=O)[C@H](CCCCNC(=O)CCCCN(CCNCC(C)(C)S)CC(C)(C)S)NC1=O [cyclo.(N--CH3)F.YWD KV.K.[BAT], cyclo.(N--CH3)Phe--Tyr--D--Trp--Lys--Val--Lys(BAT)] (cyclo([NMeF]Y[dW]KVK(X9)))",0.46
5,C[C@@H](O)[C@@H]1NC(=O)[C@H](CCCCN)NC(=O)[C@@H](Cc2c[nH]c3ccccc23)NC(=O)[C@H](Cc2ccccc2)NC(=O)[C@H](Cc2ccccc2)NC(=O)CSCCC[C@@H](C(N)=O)NC(=O)[C@H](Cc2ccccc2)NC1=O [CH2 CO.FFWD KTF.Hhc.amide] (FF[dW]KTF[hhCys(CH2CO)]-NH2; lactam N-7),0.41
6,C[C@@H](O)[C@@H]1NC(=O)[C@H](CCCCN)NC(=O)[C@@H](Cc2c[nH]c3ccccc23)NC(=O)[C@H](Cc2ccc(O)cc2)NC(=O)[C@H](Cc2ccccc2)NC(=O)CSC[C@@H](C(N)=O)NC(=O)[C@H](Cc2ccccc2)NC1=O [CH2 CO.FYWD KTFC.amide] ({CH2CO}-FY[dW]KTFC-NH2; thioether N-7),0.16

# Continued by falling Ki, values first:
row,Ki [nM],SMILES
1,4,C[C@@H](O)[C@@H]1NC(=O)[C@H](CCCCN)NC(=O)[C@@H](Cc2c[nH]c3ccccc23)NC(=O)[C@H](Cc2ccccc2)NC(=O)[C@H](Cc2ccccc2)NC(=O)CSC[C@@H](C(=O)O)NC(=O)[C@H](Cc2ccccc2)NC1=O [CH2 CO.FFWD KTFC] ({CH2CO}-FF[dW]KTFC-OH; thioether N-7)
2,2.7,C[C@@H](O)[C@@H]1NC(=O)[C@H](Cc2ccccc2)NC(=O)[C@H]([C@@H](C)O)NC(=O)[C@H](CCCCN)NC(=O)[C@@H](Cc2c[nH]c3ccccc23)NC(=O)[C@H](Cc2ccccc2)NC(=O)[C@H](Cc2ccccc2)NC(=O)[C@H](CC(N)=O)NC(=O)CSC[C@@H](C(=O)O)NC1=O [CH2 CO.NFFWD KTFTC] ({CH2CO}-NFF[dW]KTFTC-OH; thioether N-9)
3,2.6,"CC(C)[C@@H]1NC(=O)[C@H](CCCCN)NC(=O)[C@@H](Cc2c[nH]c3ccccc23)NC(=O)[C@H](Cc2ccc(O)cc2)NC(=O)[C@H](Cc2ccccc2)N(C)C(=O)[C@H](CCC(=O)NCCCCCN(CCNCC(C)(C)S)CC(C)(C)S)NC1=O [cyclo.(N--CH3)F.YWD KV.E.[BAM], cyclo.(N--CH3)Phe--Tyr--D--Trp--Lys--Val--Glu(BAM)] (cyclo([NMeF]Y[dW]KVE(X3)))"
4,0.45,C[C@@H](O)[C@@H]1NC(=O)[C@H](CCCCN)NC(=O)[C@@H](Cc2c[nH]c3ccccc23)NC(=O)[C@H](Cc2ccccc2)NC(=O)[C@H](Cc2ccccc2)NC(=O)CSC[C@@H](C(N)=O)NC(=O)[C@H](Cc2ccccc2)NC1=O [CH2 CO.FFWD KTFC.amide] ({CH2CO}-FF[dW]KTFC-NH2; thioether N-7)

# Reference: patent US6017512A, “Radiolabeled peptides” (Diatide, Inc., priority 1997, dated 2000)
